Results published in patent publication US10689414B2 (Agios Pharmaceuticals, Inc., priority 2013, dated 2020).

Columns and labels:
IDH1 R132C = IDH1 R132C (Homo sapiens (Human), UniProt O75874, R132C); test: In vitro NADPH depletion assay for IDH1m R132C inhibitors; type: biochemical; conditions: IDH1 R132C enzyme, read-out: IDH R132C IC50
Method: (§1) A test compound is prepared as 10 mM stock in DMSO and diluted to 50× final concentration in DMSO, for a 50 μl reaction mixture. IDH enzyme activity converting alpha-ketoglutarate to 2-hydroxyglutaric acid is measured using a NADPH depletion assay. In the assay the remaining cofactor is measured at the end of the reaction with the addition of a catalytic excess of diaphorase and resazurin, to generate a fluorescent signal in proportion to the amount of NADPH remaining. […] The reaction is started with the addition of 10 μl of Substrate Mix ([…], 5 mM alpha-ketoglutarate, in Assay Buffer) and the mixture is incubated for 90 minutes at room temperature.
The concentration of NADPH and alpha-ketoglutarate in the Substrate Buffer is 20 μM and 1 mM, respectively.

IDH1 R132H = IDH1 R132H (Homo sapiens (Human), UniProt O75874, R132H); test: In vitro NADPH depletion assay for IDH1m R132H inhibitors; type: biochemical; conditions: IDH1 R132H enzyme, read-out: IDH R132H IC50
Method: as §1

U87MG cells = test: Cellular assay, inhibition of 2-HG production in U87MG cells; type: cell-based
Method in brief: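 HT1080 or U87MG cells (U87MG kept with 500 ug/mL G418) seeded at 5000 cells/well and treated with compound at 0.2% final DMSO. Incubated 48 h at 37 °C. 2-HG inhibition determined by LC-MS. Viability read by CellTiter-Glo luminescence at 72 h post-dose.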

[1] = inhibition of 2-HG production, U87MG cells, 48 hours

Sequence of IDH1 R132H (O75874 whole entry R132H): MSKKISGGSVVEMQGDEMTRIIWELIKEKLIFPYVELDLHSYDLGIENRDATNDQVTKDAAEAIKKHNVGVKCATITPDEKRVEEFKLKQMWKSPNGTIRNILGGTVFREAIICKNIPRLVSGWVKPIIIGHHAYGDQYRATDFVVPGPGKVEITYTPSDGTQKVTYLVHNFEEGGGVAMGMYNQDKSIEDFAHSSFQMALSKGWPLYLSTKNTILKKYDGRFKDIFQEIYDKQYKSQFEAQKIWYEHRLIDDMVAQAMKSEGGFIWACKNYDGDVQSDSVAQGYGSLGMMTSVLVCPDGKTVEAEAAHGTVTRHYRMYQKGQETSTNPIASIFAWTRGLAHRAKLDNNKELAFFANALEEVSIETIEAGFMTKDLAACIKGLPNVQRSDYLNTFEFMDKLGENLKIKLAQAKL
Sequence of IDH1 R132C (O75874 whole entry R132C): as the sequence (O75874 whole entry R132H) above, with H132C counted along it

Compound | IC50 (U87MG cells; Homo sapiens, U-87 MG, 48 h) | further results
(S)—N—((S)-1-(2-Chlorophenyl)-2-(3,3-difluorocyclobutylamino)-2-oxoethyl)-N-(3-cyano-5-fluorophenyl)-3-(3-cyanophenyl)-2-oxooxazolidine-4-carboxamide [Compound 134] | – | IC50 (IDH1 R132C): < 100 nM; IC50 (IDH1 R132H): < 100 nM; IC50 (U87MG cells; [1]): < 100 nM
(S)—N—((S)-1-(2-Chlorophenyl)-2-((4,4-difluorocyclohexyl)amino)-2-oxoethyl)-3-(4-cyano-pyridin-2-yl)-N-(3-fluorophenyl)-2-oxooxazolidine-4-carboxamide [Compound 78] | – | IC50 (IDH1 R132C): < 100 nM; IC50 (IDH1 R132H): < 100 nM; IC50 (U87MG cells; [1]): < 100 nM
(S)-tert-butyl 3-(((S)-1-(2-chlorophenyl)-2-((3,3-difluorocyclobutyl) amino)-2-oxoethyl)(3,5-difluorophenyl)carbamoyl)-5-oxopiperazine-1-carboxylate [Compound 97] | – | IC50 (IDH1 R132C): < 100 nM; IC50 (IDH1 R132H): < 100 nM; IC50 (U87MG cells; [1]): < 100 nM
CC(C)(C)c1cccc(N(C(=O)[C@@H]2CCC(=O)N2c2nccc(C#N)n2)[C@H](C(=O)NC2CC(F)(F)C2)c2ccccc2Cl)c1 [Compound 165, (S)—N-(3-(tert-Butyl)phenyl)-N—((S)-1-(2-chlorophenyl)-2-((3,3-difluorocyclobutyl)amino)-2-oxoethyl)-1-(4-cyanopyrimidin-2-yl)-5-oxopyrrolidine-2-carboxamide] | < 100 nM | IC50 (IDH1 R132H): < 100 nM
O=C(NC1CC(F)(F)C1)[C@H](c1ccccc1Cl)N(C(=O)[C@@H]1CCC(=O)N1c1ccncn1)c1cccc(F)c1 [Compound 22] | – | IC50 (IDH1 R132C): 100 to 500 nM; IC50 (IDH1 R132H): 100 to 500 nM
N#Cc1ccnc(N2C(=O)CC[C@H]2C(=O)N(c2cncc(F)c2)[C@H](C(=O)NC2CC(F)(F)C2)c2ccccc2Cl)c1 [Compound 176, (S)—N—((S)-1-(2-Chlorophenyl)-2-(3,3-difluorocyclobutylamino)-2-oxoethyl)-1-(4-cyanopyridin-2-yl)-N-(5-fluoropyridin-3-yl)-5-oxopyrrolidine-2-carboxamide] | < 100 nM | –
N#Cc1ccnc(N2C(=O)OCC[C@H]2C(=O)N(c2cc(F)cc(F)c2)[C@H](C(=O)NC2CC(F)(F)C2)c2ccccc2Cl)n1 [Compound 154, (S)—N—((S)-1-(2-Chlorophenyl)-2-((3,3-difluorocyclobutyl)amino)-2-oxoethyl)-3-(4-cyanopyrimidin-2-yl)-N-(3,5-difluorophenyl)-2-oxo-1,3-oxazinane-4-carboxamide] | < 100 nM | –
N#Cc1ccnc(N2C(=O)CC[C@H]2C(=O)N(c2ccc3[nH]ccc3c2)[C@H](C(=O)NC2CC(F)(F)C2)c2ccccc2Cl)c1 [Compound 206, (S)—N—((S)-1-(2-Chlorophenyl)-2-((3,3-difluorocyclobutyl)amino)-2-oxoethyl)-1-(4-cyanopyridin-2-yl)-N-(1H-indol-5-yl)-5-oxopyrrolidine-2-carboxamide] | < 100 nM | –
O=C(NC1CCC(F)(F)CC1)[C@H](c1ccccc1Cl)N(C(=O)[C@@H]1CCC(=O)N1c1cnccn1)c1cccc(F)c1 [Compound 58, (S)—N—((S)-1-(2-Chlorophenyl)-2-(4,4-difluorocyclohexylamino)-2-oxoethyl)-N-(3-fluorophenyl)-5-oxo-1-(pyrazin-2-yl)pyrrolidine-2-carboxamide] | < 100 nM | –
N#Cc1ccnc(N2C(=O)CC[C@H]2C(=O)N(c2cccc(F)c2)[C@H](C(=O)NC2CC(F)(F)C2)c2ccccc2Cl)n1 [Compound 68, (S)—N—((S)-1-(2-Chlorophenyl)-2-((3,3-difluorocyclobutyl)amino)-2-oxoethyl)-1-(4-cyanopyrimidin-2-yl)-N-(3-fluorophenyl)-5-oxopyrrolidine-2-carboxamide] | < 100 nM | –
N#Cc1ccnc(N2C(=O)CC[C@H]2C(=O)N(c2cc(F)cc(F)c2)[C@H](C(=O)NC2CC(F)(F)C2)c2ncccc2Cl)c1 [Compound 198, (S)—N—((S)-1-(3-Chloropyridin-2-yl)-2-(3,3-difluorocyclobutylamino)-2-oxoethyl)-1-(4-cyanopyridin-2-yl)-N-(3,5-difluorophenyl)-5-oxopyrrolidine-2-carboxamide] | < 100 nM | –
CC(C)(C)OC(=O)N1CC(=O)N(c2nccc(C#N)n2)[C@H](C(=O)N(c2cc(F)cc(F)c2)[C@H](C(=O)NC2CCC(F)(F)CC2)c2ccccc2Cl)C1 [Compound 93, (S)-tert-Butyl 3-(((S)-1-(2-chlorophenyl)-2-((4,4-difluorocyclohexyl)amino)-2-oxoethyl)(3,5-difluorophenyl)carbamoyl)-4-(4-cyanopyrimidin-2-yl)-5-oxopiperazine-1-carboxylate] | < 100 nM | –
N#Cc1ccnc(N2C(=O)OC[C@H]2C(=O)N(c2cncc(F)c2)[C@H](C(=O)NC2CC(F)(F)C2)c2ccccc2Cl)c1 [Compound 135, (S)—N—((S)-1-(2-Chlorophenyl)-2-((3,3-difluorocyclobutyl)amino)-2-oxoethyl)-3-(4-cyanopyri-din-2-yl)-N-(5-fluoropyridin-3-yl)-2-oxooxazolidine-4-carboxamide] | < 100 nM | –
N#Cc1ccnc(N2C(=O)CC[C@H]2C(=O)N(c2cccc(F)c2)[C@H](C(=O)NC2CCC(F)(F)CC2)c2ccccc2Cl)n1 [Compound 85, (S)—N—((S)-1-(2-Chlorophenyl)-2-((4,4-difluorocyclohexyl)amino)-2-oxoethyl)-1-(4-cyanopyrimidin-2-yl)-N-(3-fluorophenyl)-5-oxopyrrolidine-2-carboxamide] | < 100 nM | –
N#Cc1ccnc(N2C(=O)OCC[C@H]2C(=O)N(c2cc(F)cc(F)c2)[C@H](C(=O)NC2CCC(F)(F)CC2)c2ccccc2Cl)c1 [Compound 139, (S)—N—((S)-1-(2-Chlorophenyl)-2-((4,4-difluorocyclohexyl)amino)-2-oxoethyl)-3-(4-cyanopyridin-2-yl)-N-(3,5-difluorophenyl)-2-oxo-1,3-oxazinane-4-carboxamide] | < 100 nM | –
N#Cc1cccc(N(C(=O)[C@@H]2CCC(=O)N2c2cc(C#N)ccn2)[C@H](C(=O)NC2CCC(F)(F)CC2)c2ccccc2Cl)c1 [Compound 166, (S)—N—((S)-1-(2-Chlorophenyl)-2-((4,4-difluorocyclohexyl)amino)-2-oxoethyl)-N-(3-cyanophenyl)-1-(4-cyanopyridin-2-yl)-5-oxopyrrolidine-2-carboxamide] | < 100 nM | –
N#Cc1cccc(N(C(=O)[C@@H]2CCC(=O)N2c2cc(C#N)ccn2)[C@H](C(=O)NC2CC(F)(F)C2)c2ccccc2Cl)c1 [Compound 128, (S)—N—((S)-1-(2-Chlorophenyl)-2-((3,3-difluorocyclobutyl)amino)-2-oxoethyl)-N-(3-cyano-phenyl)-1-(4-cyanopyridin-2-yl)-5-oxopyrrolidine-2-carboxamide] | < 100 nM | –
C[S@+]([O-])c1cc(F)cc(N(C(=O)[C@@H]2CCC(=O)N2c2cc(C#N)ccn2)[C@H](C(=O)NC2CC(F)(F)C2)c2ccccc2Cl)c1 [Compound 190, (S)—N—((S)-1-(2-Chlorophenyl)-2-(3,3-difluorocyclobutylamino)-2-oxoethyl)-1-(4-cyanopyridin-2-yl)-N-(3-fluoro-5-((S)-methylsulfinyl)phenyl)-5-oxopyrrolidine-2-carboxamide] | < 100 nM | –
N#Cc1ccnc(N2C(=O)CC[C@H]2C(=O)N(c2cccc(F)c2)[C@H](C(=O)NC2CCC(F)(F)CC2)c2ccccc2Cl)c1 [Compound 53] | < 100 nM | –
N#Cc1ccnc(N2C(=O)[C@@H](O)C[C@H]2C(=O)N(c2cc(F)cc(F)c2)[C@H](C(=O)NC2CC(F)(F)C2)c2ccccc2Cl)c1 [Compound 171, (2S,4S)—N—((S)-1-(2-Chlorophenyl)-2-((3,3-difluorocyclobutyl)amino)-2-oxoethyl)-1-(4-cyano-pyridin-2-yl)-N-(3,5-difluorophenyl)-4-hydroxy-5-oxopyrrolidine-2-carboxamide] | < 100 nM | –
O=C(NC1CC(F)(F)C1)[C@H](c1ccccc1Cl)N(C(=O)[C@@H]1COC(=O)N1c1cscn1)c1cccc(F)c1 [Compound 72] | < 100 nM | –
N#Cc1ccnc(N2C(=O)CC[C@H]2C(=O)N(c2cncc(F)c2)[C@H](C(=O)NC2CC(F)(F)C2)c2ccccc2)c1 [Compound 147, (S)-1-(4-Cyanopyridin-2-yl)-N—((S)-2-((3,3-difluorocyclobutyl)amino)-2-oxo-1-phenylethyl)-N-(5-fluoropyridin-3-yl)-5-oxopyrrolidine-2-carboxamide] | < 100 nM | –
N#Cc1cnc(N2C(=O)CC[C@H]2C(=O)N(c2cc(F)cc(F)c2)[C@H](C(=O)NC2CC(F)(F)C2)c2ccccc2Cl)o1 [Compound 162, (S)—N—((S)-1-(2-chlorophenyl)-2-((3,3-difluorocyclobutyl)amino)-2-oxoethyl)-1-(5-cyanooxa-zol-2-yl)-N-(3,5-difluorophenyl)-5-oxopyrrolidine-2-carboxamide] | < 100 nM | –
N#Cc1ccnc(N2C(=O)[C@@H](O)C[C@H]2C(=O)N(c2cccc(F)c2)[C@H](C(=O)NC2CCC(F)(F)CC2)c2ccccc2Cl)n1 [Compound 189, (2S,4S)—N—((S)-1-(2-Chlorophenyl)-2-((4,4-difluorocyclohexyl)amino)-2-oxoethyl)-1-(4-cyanopyrimidin-2-yl)-N-(3-fluorophenyl)-4-hydroxy-5-oxopyrrolidine-2-carboxamide] | < 100 nM | –
